These results are taken from US20110021619A1, “EXTERNAL PREPARATION FOR SKIN CONTAINING FLAVANONE DERIVATIVE” (priority 2006, published 2011).

Data set [1] concerns Normal human epidermal keratinocytes. The experiment in a line: Cell proliferation effect of farrerol on keratinocytes (direct evaluation, cell count). The data set is classed as cell-based. To be noted: FIG. 7. As to the method: 3) After 24 hours, 48 hours, and 72 hours from the sample addition, the cells were dispersed with 0.05% Trypsin/EDTA and the number thereof was then counted by a blood cell counter. By the way, in Experiment 1, the evaluation for WST-8 was used as an indicator of the number of cells. Since such a method is provided for indirect evaluation of the number of cells by acting on […] in mitochondria, the present study directly count the number of cells.

Data set [2] has as its system Normal human fibroblasts. The experiment in a line: Screening with wound model (punched collagen gel), Example 11. It is filed as cell-based. The protocol:
The fractions containing the single ingredients obtained as described above are provided as test substances and the effect of each test substance to construct collagen is then evaluated to screen the substance with a wound-healing effect. The specific procedures will be described later.
Using a “wound model” provided with a defect area formed by punching a collagen gel containing animal fibroblasts, the degree of filling or reduction of the defect area in the presence of a test substance will be observed. The procedures are as follows.
1) Normal human fibroblasts grown to 80% confluency in preculture were dispersed with 0.05% Trypsin/EDTA. The fibroblasts were then seeded on a plate at a cell density of 3×10^5 cells/25 cm^2 (1×10^4 cells/cm^2).
3) A collagen gel was prepared by adding a collagen medium solution to the obtained culture in a manner similar to Example 3. The fibroblasts in the collagen gel were cultured using the medium used in (2). The concentration of the test substance in the medium corresponded to the concentration of the medium of (2).
4) After culturing for 1 week, the size of a collagen gel was reduced from one at the time of being prepared by the addition of the collagen medium solution to a size of about ⅕ to 1/10. Subsequently, the center portion of the collagen gel was punched out in a donut form by a disposable biopsy punch with a diameter of 3 mm. As a result, a “wound model” was prepared.
5) A 6-well plate was prepared and 5 μl of the collagen solution was then dropped on the center portion of the well. Subsequently, the collagen gel of the wound model was mounted thereon and incubated at 37° C. for 15 minutes, allowing the collagen gel to be attached on the bottom of the well.
6) Subsequently, 3 ml of the same medium as that of (2) was added to each of the wells and the fibroblasts in the above-mentioned collagen gel was then cultured for 7 days. During the culture, the process of closing up the wound area of the collagen gel was visually observed.

The test system of data set [3] is Normal human fibroblasts. The experiment in a line: Model of defective dermal tissue with wound (punched collagen gel), Example 6. The data set is classed as cell-based. As to conditions: FIG. 4. As to the method: The procedures will be described below. The results are represented in FIG. 4.
1) Normal human fibroblasts grown to 80% confluency were dispersed with 0.05% Trypsin/EDTA. The fibroblasts were seeded at a cell density of 3×10^5 cells/25 cm^2.
3) A collagen gel was prepared by adding a collagen medium solution to the culture obtained by culturing under each of the conditions in a manner similar to Example 2. The prepared collagen gel was then suspension-cultured for 1 week in the same medium as that of the culture condition of (2).
4) When the size of a collagen gel was reduced from one at the time of being prepared by the addition of the collagen medium solution to a size of about ⅕ to 1/10, the center portion of the gel was punched out in a donut form by a disposable biopsy punch with a diameter of 3 mm. As a result, a “wound model” was prepared.
5) A 6-well plate was prepared and 5 μl of collagen was then dropped on the center portion of the well. Subsequently, the collagen gel of the wound model was mounted thereon and incubated at 37° C. for 15 minutes.
6) When the dropped collagen was solidified and the gel was attached to the bottom of the well, 3 ml of the medium with the same condition as that of (3) was added, followed by culturing as a “model of defective dermal tissue with wound”. Subsequently, the process of closing up the wound area of the collagen gel was visually observed.

Data set [4] relates to Normal human fibroblasts. Put plainly: Wound-healing model (punched three-dimensional collagen gel), behavior of fibroblasts. The data set is classed as cell-based. As to conditions: 10^−6 ml/ml-DMEM farrerol, after 24 hours, vs farrerol-free group. The source says:
1) The culture of fibroblasts obtained by Protocol 4 of Example 1 and the collagen medium solution were mixed together at a ratio of 1:9 (volume) and then suspension-cultured in a 10%-FBS medium for 1 week.
2) When the size of a collagen gel was reduced from one at the time of being prepared by the addition of the collagen medium solution to a size of about ⅕ to 1/10, the center portion of the gel was punched out by a disposable biopsy punch with a diameter of 3 mm.
3) A 6-well plate was prepared and 15 μl of the collagen solution was then dropped on the center of the well. Subsequently, the punched three-dimensional collagen gel was mounted thereon and incubated for 10 minutes (37° C., 5% CO2).
4) When the dropped collagen was solidified and the three-dimensional collagen gel was attached to the bottom of the well, 10% FBS-DMEM, 0.1% heparin/10% FBS-DMEM, and 1.0% heparin/10% FBS-DMEM were added in a volume of 3 ml/well.

Data set [5] has as its system Normal human fibroblasts. The experiment in a line: Toxicity of farrerol on fibroblasts, MTT assay (WST-8). It is filed as cell-based. To be noted: 24, 48 and 72 hours after addition, any of the concentrations considered. As to the method: 1. Fibroblasts grown to 80% confluency were dispersed with 0.05% Trypsin/EDTA. The dispersant was seeded on 96 wells/plate at a concentration of 3×10^3 cells/well. 2. […] 3. […] 4. Absorbance was measured at a measurement wavelength of 450 nm and a reference wavelength of 650 nm.
(In general: Tetrazolium dyes change colour on reduction, which living cells bring about.)

For data set [6], the system named is NHDF. Put plainly: Building of collagen fiber bundle in collagen gel with heparin, SEM observation. The data set is classed as cell-based, human. To be noted: 1% heparin at final, 5 days incubation, FIG. 3.
Method: A collagen solution was prepared by mixture of 0.5% type-I collagen: 5×DMEM: 200 mM HEPES: 2.2% NaHCO3: 0.1 N NaOH: FBS: water at a ratio of 4:4:2:2:1:2:3 (performed while cooling).
A lower-layer collagen solution was prepared by mixing collagen solution with water at a ratio of 9 to 1.
The lower-layer collagen solution was dispensed into the respective wells of a 48-well plate in a volume of 100 μl/well.
The collagen solution was mixed with the cell suspension at a ratio of 9 to 1 (volume) and then dispensed into the respective wells in a volume of 300 μl/well.
The addition of 1.8% Heparin/10% FBS-DMEM was performed in a volume of 500 μl/well (1% Heparin/well at final).
Incubation was carried out in the CO2 incubator (5 days).
A sample for SEM observation was obtained.
In data set [7] the test system is epidermal keratinocytes and fibroblasts. Put plainly: Influence on fibroblasts through epidermal keratinocytes, amount of procollagen produced (PIP EIA). The data set is classed as cell-based, human. The protocol:
The method is based on one described in Eming SA et al., Hum. Gene. Ther., 9 (4), 529-39 (1998).
DAY 1: The cells are seeded on a 24-well plate at a cell density of 3×10^4 cells/well. […] DAY 7: The supernatant of the culture is collected.
DAY 3: The cells are seeded on a 24-well plate at a cell density of 2.5×10^4 cells/well. DAY 7: The plate is washed with PBS and the culture supernatant (900 μl) of the epidermal keratinocytes is then added, followed by culturing for 48 hours. DAY 9: The plate is washed with PBS and serum-free DMEM and the medium is then replaced with 500 μl of serum-free DMEM, followed by culturing for 2 hours. The supernatant of the culture is collected and the amount of procollagen in the centrifuged supernatant (15000 rpm, 5 sec.) was then measured depending on the method described below. […]
4) A standard curve was formed by plotting absorbance values at a wavelength of […] while the absorbance of the medium was set to zero as a reference. Then, the PIP concentration was read out from the corresponding absorbance of the test substance.

In data set [8] the test system is Normal human epidermal keratinocytes.
Method: 1) Normal human epidermal keratinocytes grown to 80% confluency were dispersed with 0.05% Trypsin/EDTA. The dispersant was seeded on 96 wells/plate at a concentration of 3×10^3 cells/well and 6×10^3 cells/well.
4) Absorbance (OD value) was measured at a measurement wavelength of 450 nm and a reference wavelength of 650 nm.

As for `Cc1c(O)c(C)c2c(c1O)C(=O)CC(c1ccc(O)cc1)O2` (centres unmarked) [farrerol], the cell shape entry in data set [1] is “no change in cell shape”. In addition, the “degree of filling or reduction of the defect area” value in data set [2] (compared with the rest of the seven single-ingredient fractions of Hypericum erectum extract) was “highest degree of filling or reduction of the defect area”. In addition, the “concentration exerting a wound-healing promoting effect” value in data set [2] (effective concentration read from defect area reduction) was “at least 10^−6 M”. Further, the “reduction of the punch hole (defect area)” value in data set [2] (final concentration of farrerol 10^−5 M, FIG. 9) was “distinctly promoted”; in data set [2] (final concentration of farrerol 10^−6 M, FIG. 9), “distinctly promoted”. Moreover, the “promotion of reduction of the punch hole (defect area)” value in data set [2] (final concentration of farrerol 10^−7 M, FIG. 9) is “obscure”. Moreover, the “reduction of punched hole size” value in data set [3] (final concentration of farrerol 10^−5 M) and in data set [3] (final concentration of farrerol 10^−6 M) was “promoted clearly” in each case. For the same compound, the “promotion of reduction of punched hole size” value in data set [3] (final concentration of farrerol 10^−7 M) is reported as “unclear”. For the same compound, the “movement of fibroblasts from the wound area” value is “no difference in cell movement” in data set [4] (0.1% heparin/10% FBS-DMEM and 1.0% heparin/10% FBS-DMEM); “longer movement distance of fibroblasts and a more active cellular movement” in data set [4] (unsupplemented 10% FBS-DMEM, FIG. 2). Besides, in data set [5], the cytotoxicity entry was “Significant cytotoxicity could not be confirmed”. Also, the “building of a collagen fiber bundle” value in data set [6] is “prevents an inhibitory effect of heparin on the building of a collagen fiber bundle”. In addition, the “amount of procollagen produced” value in data set [7] (another system: farrerol added at the time of culturing fibroblasts, then keratinocyte culture supernatant added) was “did not show a large change in amount of procollagen produced”; in data set [7] (fibroblasts cultured 48 hours with supernatant of keratinocytes treated with farrerol 10^−6, 10^−7, 10^−8 M, FIG. 8), “increased significantly depending on the concentration of farrerol”. In addition, the “OD value (450 nm)” value in data set [8] (dependence on concentration of farrerol, FIG. 5) is listed as “increased depending on the concentration of farrerol”. In addition, in data set [8] (doubled number of seeded cells, 6×10^3 cells/well), the “OD value, reproducibility” value is listed as “almost the similar result could be obtained”.
